Assay results from patent publication US5284872A, “Nitrato alkanoic acid derivatives, methods for their production, pharmaceutical compositions containing the derivatives and medicinal uses thereof” (Schwarz Pharma AG, priority 1990, dated 1994).

Experiments:
[1] = NO release / rate of NO formation from organic nitrates; conditions: pH 7.4; for rate of NO formation: 1 mM compound, same conditions as ISDN
[2] = system: soluble guanylate cyclase; assay: Stimulation of soluble guanylate cyclase; format: biochemical; conditions: for stimulation of guanylate cyclase, dependence on cysteine: with or without cysteine
[3] = system: precontracted rat aortic rings; assay: Relaxation of precontracted rat aortic rings; conditions: for EC50: read-out: EC50 of concentration-dependent relaxation; for potency relative to ISDN (factor): versus isosorbid dinitrate
From the text: Compounds SPM 5185 and SPM 5186 caused a similar concentration-dependent relaxation of precontracted rat aortic rings with a potency exceeding that of ISDN (isosorbid dinitrate) by a factor of 5 (EC50 approx. 10^-6 M).

[4] = system: normotonous conscious rats and spontaneous hypertensive rats; assay: Peroral application to conscious rats: arterial pressure and heart rate; format: in vivo, rat
conscious beagle dogs = assay: Hemodynamic profile in conscious beagle dogs; format: in vivo, beagle dog; conditions: for mean arterial and venous pressure: 0.01-1 μmol/kg i.v. and 1-10 μmol/kg p.o.; for arterial vessel compliance / cardiac output: i.v. and p.o.; for effectiveness in reducing arterial and central venous pressure compared with GTN (dose-response curves): versus GTN and IS-5-N
From the text: The hemodynamic profile of SPM 5185 and SPM 5186 in direct comparison to classical nitrates was investigated in conscious beagle dogs.

[5] = system: normotonous (WKY) and spontaneously hypertensive rats (SHR); assay: Endothelium dependent and independent blood pressure regulation in chronically instrumented conscious rats (acetylcholine and adenosine as test stimuli); format: in vivo, rat; conditions: single oral application
From the text: The effect of a single peroral application of SPM 5186 on endothelium dependent and independent blood pressure regulation was investigated in chronically instrumented conscious rats with acetylcholine and adenosine serving as test stimuli.

| SMILES | spontaneous NO release ([1]; absence of exogenous cysteine, concentration of 1 mM) | stimulation of soluble guanylate cyclase ([2]; absence of exogenous cysteine) | effect of addition of cysteine on enzyme stimulation ([2]; addition of cysteine) | rate of NO formation [1] | stimulation of guanylate cyclase, dependence on cysteine [2] | EC50 [3] | potency relative to ISDN (factor) [3] | heart rate ([4]; normotonous conscious rats) | mean arterial pressure ([4]; normotonous conscious rats) | estimated duration of action (conscious beagle dogs) | mean arterial and venous pressure (conscious beagle dogs) | arterial vessel compliance (conscious beagle dogs) | cardiac output (conscious beagle dogs) | effectiveness in reducing arterial and central venous pressure compared with GTN (dose-response curves) (conscious beagle dogs) | alteration of endogenous dilator mechanisms [5] | systolic and diastolic arterial blood pressure ([4]; same dose, spontaneous hypertensive rats) |
| --- | --- | --- | --- | --- | --- | --- | --- | --- | --- | --- | --- | --- | --- | --- | --- | --- |
| CCOC(=O)[C@H](CS)NC(=O)C(C)(C)CO[N+](=O)[O-] [SPM 3672, nitratopivaline carboxylic acid-L-cysteine ethyl ester, reference compound] | 42.7±9.8 nM NO/min | stimulated soluble guanylate cyclase | did not further enhance enzyme stimulation | – | – | – | – | – | – | – | – | – | – | – | – | – |
| CCOC(=O)[C@H](CSC(=O)C(C)NC(C)=O)NC(=O)C(C)(C)CO[N+](=O)[O-] (stereo partly drawn) [SPM 5185, N-nitrato-pivaloyl-S-(N-acetyl-alanyl)-L-cysteine ethyl ester] | – | – | – | 35.1±5.1 nM NO/min | stimulated guanylate cyclase only in the presence of cysteine | ~1000 nM | 5 | only a slight increase | nearly no influence | long-acting nitrates | dose-dependent decrease | enhanced | remained unaffected | even more effective than the most potent classical nitrate GTN | – | – |
| CCOC(=O)[C@H](CSC(=O)CNC(C)=O)NC(=O)C(C)(C)CO[N+](=O)[O-] [SPM 5186, N-nitrato-pivaloyl-S-(N-acetyl-glycyl)-L-cysteine ethyl ester] | – | – | – | 24.8±5.4 nM NO/min | stimulated guanylate cyclase only in the presence of cysteine | ~1000 nM | 5 | – | – | long-acting nitrates | dose-dependent decrease | enhanced | remained unaffected | even more effective than the most potent classical nitrate GTN | Neither in normotonous (WKY) nor in spontaneously hypertensive rats (SHR) could any significant alteration of endogenous dilator mechanisms be observed | marked decrease |
